Assay results from US7566812B2, “Transgenic mouse models of hepatitis C virus (HCV) and identification of HCV therapeutics” (priority 2004, dated 2009).

Legend:
NS3/4A-Tg mice = experiment: Survival after TNF-α/D-Gal challenge, NS3/4A transgenic mice; type: in vivo, mouse
Description: (§1) This Example describes several of the approaches used to induce hepatic injury in the NS3/4A-Tg mice and the techniques used to analyze the data. All NS3/4A-Tg or wild-type (Wt) mice used in these experiments were male and/or females between 6-12 weeks old. All groups of mice contained five to ten mice. Comparisons were done in age matched animals, excluding an age dependent difference when comparing groups. For the carbon tetrachloride (CCl4) treatment, CCl4 was diluted in 100 μL olive oil and administered intraperitoneal (i.p.) as a single dose to NS3/4A-Tg and Wt mice. Each mouse was treated with 10 mg (0.5 g/kg) CCl4 (Sigma). Serum from individual mice was collected at various time intervals (12, 24, 48, and 72 hours) after CCl4-treatment by retro-orbital bleeding. Serum alanine aminotransferase (ALT) values were measured to evaluate the extent of liver injury. […] Serum ALT values were measured to evaluate the extent of liver injury. […] Serum ALT values were measured to evaluate the extent of liver injury. […] Serum ALT values were measured to evaluate the extent of liver injury. […] Serum ALT values were measured to evaluate the extent of liver injury.
(§2) SB203580 (Calbiochem) was dissolved/diluted in sterile dH2O and administered to mice intra orally (i.o.). […] The following Example teaches how the above data were statistically analyzed.

wild-type mice = experiment: Survival after TNF-α/D-Gal challenge, wild-type mice; type: in vivo, mouse
Description: as §1, §2

HCV = experiment: Treatment of a patient with HCV related complications; type: in vivo; settings: repeated course of treatment
Description: A patient in need of treatment of HCV related complications is identified by routine methods. The patient is administered an amount of SB203580, based on the particular patient and the severity of the HCV symptoms. Following a repeated course of treatment, if required, the patient's HCV related symptoms are reduced. In some applications, the reduction of viral lode or another indicator for HCV infection is measured. The next example describes more transgenic organisms that contain the constructs described herein.

[1] = system: NS3/4A-SP2/0 tumor cell line; experiment: In vivo tumor growth assay in immunized Balb/c mice, NS3/4A-SP2/0 cells; settings: 3 mg ribavirin with 100, 10 or 1 micrograms coNS3/4A, single immunization
Description: To study whether the constructs described above were capable of eliciting a cell-mediated response against NS3, an in vivo tumor growth assay was performed. To this end, an SP2/0 tumor cell line (SP2/0-Ag14 myeloma cell line (H-2^d)) stably transfected with the NS3/4A gene was made. The SP2/0 cells were maintained in DMEM medium supplemented with 10% fetal calf serum (FCS; Sigma Chemicals, St. Louis, Mo.), 2 mM L-Glutamine, 10 mM HEPES, 100 U/ml Penicillin and 100 μg/ml Streptomycin, 1 mM non-essential amino acids, 50 μM β-mercaptoethanol, 1 mM sodium pyruvate (GIBCO-BRL, Gaithesburgh, Md.). The pcDNA3.1 plasmid containing the NS3/4A gene was linearized by BglII digestion. […]
Transfected cells were cloned by limiting dilution and selected by addition of 800 μg geneticin (G418)/ml complete DMEM medium after 14 days. […] Bound murine serum antibodies were detected by an alkaline phosphatase conjugated goat anti-mouse IgG (Sigma cell products, Saint Louis, Mo. USA) followed by addition of the substrate pNPP (1 tablet/5 ml of 1 M Diethanolamin buffer with 0.5 mM MgCl2). […] Absorbance was then read at 405 nm.
The in vivo growth kinetics of the SP2/0 and the NS3/4A-SP2/0 cell lines were then evaluated in Balb/c mice. […] Each day the size of the tumor was determined through the skin. […]

[2] = system: NS3/4A-EL-4 tumor cell line; experiment: Tumor challenge model with NS3/4A-EL-4 tumor cells; type: in vivo; settings: C57BL/6 mice
Text: To define the in vivo functional anti-tumor effector cell population, CD4+ or CD8+ T cells were depleted in mice immunized with the coNS3/4A plasmid one week prior to, and during, challenge with the NS3/4A-EL-4 tumor cell line. […] Thus, NS3/4A-specific CD8+ CTLs are the major protective cell at the effector stage in the in vivo model for inhibition of tumor growth.
The tumor challenge model was used to evaluate how effective the different immunogens were in priming a protective immunity against growth of NS3/4A-EL4 tumor cells in vivo. To ensure that the effectiveness of the priming event was studied, all mice were immunized only once. Vectors containing NS3/4A were able to rapidly prime protective immune responses as compared to the immunized with the empty pVAX plasmid (p<0.05, ANOVA; FIG. 10). […] The next example examines the prerequisites for priming of CD8+ CTL.
To further clarify the prerequisites for priming of CD8+ CTL additional experiments were performed. First, C57BL/6 mice immunized with the NS3-derived CTL peptide were not protected against growth of NS3/4A-EL-4 tumors. […] To further characterize the priming event, groups of B cell (μMT; Kitamura D., et al., Nature, 350: 423-426 (1991)) or CD4 deficient C57BL/6 mice (Rahemtulla A et al., Nature, 353:180-184 (1991)) were immunized once with the coNS3/4A gene using gene gun, and challenged two weeks later (FIG. 10). […]

[3] = 0.5 mg (25 mg/kg) i.o. thirty minutes prior to rm TNF-α/D-Gal

What does the source list for `C[S+]([O-])c1ccc(-c2nc(-c3ccncc3)c(-c3ccc(F)cc3)[nH]2)cc1` (stereo not shown) [SB203580]?
TNF-alpha sensitivity phenotype (survival) of NS3/4A transgenic mice (NS3/4A-Tg mice; [3]): reverted to TNF-alpha sensitive phenotype; impact on the survival rate of wild-type mice provided TNF-alpha (wild-type mice; [3]): no significant; patient's HCV related symptoms (HCV): reduced

How did the “effect of the adjuvant on the effectiveness of the initial coNS3/4A immunization (tumor size)” value [1] turn out when `NC(=O)c1ncn([C@@H]2O[C@H](CO)[C@@H](O)[C@H]2O)n1` [ribavirin, 1-β-D-ribofuranosyl-1,2,4-triazole-3-carboxamide] was run?
The value was “dramatically increased the effectiveness”.

For “GAVQNEVTL (Artificial Peptide, NS3/4A H-2D Binding Peptide) [NS3-derived CTL peptide]”, which “protection against growth of NS3/4A-EL-4 tumors” value [2] is on record?
Its value is “not protected”.

Which “survival of the lethal TNF-α dose” value (NS3/4A-Tg mice; 5 μg/kg, NS3/4A-Tg mice) does the source give for TNF-α here?
Its value is “all NS3/4A-Tg mice survived”.

And the mice killed (wild-type mice; 5 μg/kg, non-transgenic mice, within 24 hours)?
The mice killed was 80%.
